Measurements from ChEMBL document CHEMBL4831513, “Discovery of quinazoline derivatives as a novel class of potent and in vivo efficacious LSD1 inhibitors by drug repurposing” (Eur J Med Chem, 2021).
Active and inactive are the calls of the source. The rule behind the calls is not given here.

Columns and labels:
MGC-803 [1] = assay: Inhibition of cell migration in human MGC-803 cells at 0.5 uM measured after 48 hrs by transwell assay relative to control; assay type: functional
BGC-823 = assay: cells; conditions: Homo sapiens, BGC-823, 72 h
Description: Antiproliferative activity against human BGC-823 cells assessed as cell growth inhibition measured after 72 hrs by MTT assay

MGC-803 [2] = assay: Antitumor activity against human MGC-803 cells xenografted in nude mouse assessed as reduction in tumor weight at 40 mg/kg/day, iv administered for 21 days relative to control; assay type: functional; conditions: MGC-803, iv, 504 h, time 21 day
MGC-803 [3] = assay: Antitumor activity against human MGC-803 cells xenografted in nude mouse assessed as pyknosis in tumor tissue at 40 to 80 mg/kg/day, iv measured after 21 days by H and E staining based histopathological analysis; assay type: functional, organism-based; conditions: dose 40-80 mg/kg/day, time 21.0 day
MGC-803 [4] = assay: Induction of apoptosis in human MGC-803 cells assessed as necrotic cells at 20 uM measured after 24 hrs by Annexin V-FITC/PI staining based flow cytometry analysis (Rvb= 1%); assay type: functional
MGC-803 [5] = assay: Induction of apoptosis in human MGC-803 cells assessed as early apoptotic cells at 20 uM measured after 24 hrs by Annexin V-FITC/PI staining based flow cytometry analysis (Rvb= 6.1%); assay type: functional
GES1 = assay: cells; conditions: Homo sapiens, GES1, 72 h
Description: Cytotoxicity against human GES1 cells assessed as cell growth inhibition measured after 72 hrs by MTT assay

NCI-H1975 = assay: cells; conditions: Homo sapiens, NCI-H1975, 72 h
Description: Antiproliferative activity against human NCI-H1975 cells assessed as cell growth inhibition measured after 72 hrs by MTT assay

MGC-803 [6] = assay: Induction of apoptosis in human MGC-803 cells assessed as late apoptotic cells at 20 uM measured after 24 hrs by Annexin V-FITC/PI staining based flow cytometry analysis (Rvb= 3.9%); assay type: functional
MGC-803 [7] = assay: Antitumor activity against human MGC-803 cells xenografted in nude mouse assessed as low cell density in tumor tissue at 40 to 80 mg/kg/day, iv measured after 21 days by H and E staining based histopathological analysis; assay type: functional, organism-based; conditions: dose 40-80 mg/kg/day, time 21.0 day
MGC-803 [8] = assay: Antitumor activity against human MGC-803 cells xenografted in nude mouse assessed as inhibition of tumor growth at 40 to 80 mg/kg/day, iv administered for 21 days; assay type: functional, organism-based; conditions: dose 40-80 mg/kg/day, time 21.0 day
MGC-803 [9] = assay: Induction of apoptosis in human MGC-803 cells assessed as early apoptotic cells at 5 uM measured after 24 hrs by Annexin V-FITC/PI staining based flow cytometry analysis (Rvb= 6.1%); assay type: functional
[10] = target: T1, Lysine-specific histone demethylase 1A (Homo sapiens, UniProt O60341)
Description: Inhibition of recombinant full length LSD1 (unknown origin) transfected in Escherichia coli BL21 (DE) using H3K4me2 as substrate by flourescence based analysis

MGC-803 [11] = assay: Inhibition of clonogenicity in human MGC-803 cells assessed as reduction in colony formation measured after 10 days by crystal violet staining based analysis; assay type: functional, cell-based; conditions: dose 1-20 µM, time 10.0 day
[12] = Aqueous solubility of the compound in water; assay type: physicochemical
[13] = target: T1, Lysine-specific histone demethylase 1A; assay: Inhibition of recombinant full length LSD1 (unknown origin) transfected in Escherichia coli BL21 (DE) at 5 uM using H3K4me2 as a substrate by flourescence based analysis relative to control
MGC-803 [14] = assay: Induction of apoptosis in human MGC-803 cells assessed as necrotic cells at 10 uM measured after 24 hrs by Annexin V-FITC/PI staining based flow cytometry analysis (Rvb= 1%); assay type: functional
[15] = target: Glycogen synthase kinase-3 beta (Homo sapiens) (UniProt P49841); assay: Inhibition of GSK-3beta (unknown origin) at 5 uM relative to control
Chain of Glycogen synthase kinase-3 beta (Homo sapiens) (P49841 whole entry, looked up): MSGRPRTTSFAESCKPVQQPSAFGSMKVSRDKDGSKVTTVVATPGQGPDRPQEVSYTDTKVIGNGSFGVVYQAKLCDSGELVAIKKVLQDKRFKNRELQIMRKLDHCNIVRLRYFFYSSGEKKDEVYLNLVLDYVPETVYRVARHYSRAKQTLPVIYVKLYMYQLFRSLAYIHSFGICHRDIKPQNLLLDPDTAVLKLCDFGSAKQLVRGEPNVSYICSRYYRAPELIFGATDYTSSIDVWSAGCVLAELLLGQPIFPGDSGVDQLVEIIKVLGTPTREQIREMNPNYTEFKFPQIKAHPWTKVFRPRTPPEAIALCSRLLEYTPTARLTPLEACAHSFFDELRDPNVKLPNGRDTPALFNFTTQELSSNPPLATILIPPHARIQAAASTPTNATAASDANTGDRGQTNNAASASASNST

MGC-803 [16] = assay: Induction of apoptosis in human MGC-803 cells assessed as late apoptotic cells at 5 uM measured after 24 hrs by Annexin V-FITC/PI staining based flow cytometry analysis (Rvb= 3.9%); assay type: functional
[17] = target: Epidermal growth factor receptor (Homo sapiens, UniProt P00533); assay: Inhibition of EGFR (unknown origin)
Chain of Epidermal growth factor receptor (P00533 whole entry): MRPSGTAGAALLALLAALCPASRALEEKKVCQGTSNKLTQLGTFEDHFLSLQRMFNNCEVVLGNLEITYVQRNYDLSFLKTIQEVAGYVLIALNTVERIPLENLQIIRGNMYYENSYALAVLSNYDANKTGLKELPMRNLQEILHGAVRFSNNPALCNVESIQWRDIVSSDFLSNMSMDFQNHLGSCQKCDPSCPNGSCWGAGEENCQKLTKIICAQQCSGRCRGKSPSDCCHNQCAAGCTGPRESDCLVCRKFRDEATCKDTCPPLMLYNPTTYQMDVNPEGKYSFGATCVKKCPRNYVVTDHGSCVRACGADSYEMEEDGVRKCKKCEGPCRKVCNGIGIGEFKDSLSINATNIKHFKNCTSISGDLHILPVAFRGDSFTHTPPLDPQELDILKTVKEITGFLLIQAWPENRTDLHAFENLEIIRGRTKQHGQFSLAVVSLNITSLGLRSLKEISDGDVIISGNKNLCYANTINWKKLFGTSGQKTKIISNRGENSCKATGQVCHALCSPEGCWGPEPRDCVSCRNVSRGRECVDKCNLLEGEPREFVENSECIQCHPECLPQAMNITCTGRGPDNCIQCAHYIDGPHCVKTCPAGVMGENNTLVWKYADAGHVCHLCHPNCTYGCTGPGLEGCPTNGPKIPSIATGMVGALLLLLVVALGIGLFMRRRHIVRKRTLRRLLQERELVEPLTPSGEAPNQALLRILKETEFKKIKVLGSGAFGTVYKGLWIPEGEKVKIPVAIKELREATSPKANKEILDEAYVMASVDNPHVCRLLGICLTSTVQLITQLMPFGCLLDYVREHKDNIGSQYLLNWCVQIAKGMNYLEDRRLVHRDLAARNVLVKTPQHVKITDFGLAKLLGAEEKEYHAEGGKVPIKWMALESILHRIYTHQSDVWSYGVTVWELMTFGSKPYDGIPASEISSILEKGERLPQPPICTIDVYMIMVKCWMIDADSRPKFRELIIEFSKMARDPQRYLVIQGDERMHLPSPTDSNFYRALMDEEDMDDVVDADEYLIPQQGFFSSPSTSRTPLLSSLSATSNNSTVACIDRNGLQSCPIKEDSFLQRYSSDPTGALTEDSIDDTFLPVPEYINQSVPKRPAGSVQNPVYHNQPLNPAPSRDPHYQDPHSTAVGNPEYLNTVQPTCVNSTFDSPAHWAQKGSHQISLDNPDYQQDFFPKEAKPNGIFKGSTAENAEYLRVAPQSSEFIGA

MGC-803 [18] = assay: Induction of apoptosis in human MGC-803 cells assessed as viable cells at 5 uM measured after 24 hrs by Annexin V-FITC/PI staining based flow cytometry analysis (Rvb= 89%); assay type: functional; conditions: read-out: Activity
[19] = target: Cyclin-dependent kinase 1 (Homo sapiens) (UniProt P06493); assay: Inhibition of CDK1 (unknown origin) at 5 uM using 5-FAM-QSPKKG-CONH2 as a substrate incubated for 60 mins in the presence of ATP by caliper analysis relative to control
Chain of Cyclin-dependent kinase 1 (Homo sapiens) (P06493 whole entry, looked up): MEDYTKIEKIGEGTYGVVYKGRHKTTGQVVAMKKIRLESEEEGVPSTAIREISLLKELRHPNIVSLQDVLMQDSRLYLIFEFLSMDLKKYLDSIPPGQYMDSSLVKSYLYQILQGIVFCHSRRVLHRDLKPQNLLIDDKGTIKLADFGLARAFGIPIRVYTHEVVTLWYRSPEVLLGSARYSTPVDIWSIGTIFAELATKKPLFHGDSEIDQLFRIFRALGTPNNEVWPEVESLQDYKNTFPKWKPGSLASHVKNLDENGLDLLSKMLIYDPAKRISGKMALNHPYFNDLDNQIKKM

MGC-803 [20] = assay: Inhibition of clonogenicity in human MGC-803 cells assessed as reduction in colony formation at 10 uM measured after 10 days by crystal violet staining based analysis relative to control; assay type: functional; conditions: MGC-803, 240 h, time 10 day
Homo sapiens = species on record: Homo sapiens; assay: Selectivity index, ratio of IC50 for inhibition of EGFR (unknown origin) to IC50 for inhibition of recombinant human full length LSD1 transfected in Escherichia coli BL21 (DE)
MGC-803 [21] = assay: Induction of apoptosis in human MGC-803 cells assessed as live cells at 10 uM measured after 24 hrs by Annexin V-FITC/PI staining based flow cytometry analysis (Rvb= 89%); assay type: functional
[22] = target: T1, Lysine-specific histone demethylase 1A; assay: Inhibition of LSD1 in human MGC-803 cells assessed as increase in H3K4me2 expression measured after 24 hrs by western blot analysis; assay type: cell-based; conditions: dose 5-20 µM
MGC-803 [23] = assay: Induction of apoptosis in human MGC-803 cells assessed as necrotic cells at 5 uM measured after 24 hrs by Annexin V-FITC/PI staining based flow cytometry analysis (Rvb= 1%); assay type: functional
PC-3 = assay: cells; conditions: Homo sapiens, PC-3, 72 h
Description: Antiproliferative activity against human PC-3 cells assessed as cell growth inhibition measured after 72 hrs by MTT assay

MGC-803 [24] = assay: Inhibition of epithelial mesenchymal transition process in human MGC-803 cells assessed as increase in E-cadherin expression at 0.1 to 0.5 uM measured after 24 hrs western blot analysis; assay type: functional, cell-based; conditions: dose 0.1-0.5 µM
MAO-B = target: T2, MAO-B (Homo sapiens, UniProt P27338); assay: Inhibition of N-terminal FLAG-tagged recombinant human MAO-B expressed in baculovirus-infected Sf9 cells at 5 uM using luciferin derivative as substrate pretreated for 15 mins followed by substrate addition and incubated for 60 mins by luciferase assay relative to control; conditions: probe luciferin derivative, time 75 min
T2 sequence (P27338 whole entry): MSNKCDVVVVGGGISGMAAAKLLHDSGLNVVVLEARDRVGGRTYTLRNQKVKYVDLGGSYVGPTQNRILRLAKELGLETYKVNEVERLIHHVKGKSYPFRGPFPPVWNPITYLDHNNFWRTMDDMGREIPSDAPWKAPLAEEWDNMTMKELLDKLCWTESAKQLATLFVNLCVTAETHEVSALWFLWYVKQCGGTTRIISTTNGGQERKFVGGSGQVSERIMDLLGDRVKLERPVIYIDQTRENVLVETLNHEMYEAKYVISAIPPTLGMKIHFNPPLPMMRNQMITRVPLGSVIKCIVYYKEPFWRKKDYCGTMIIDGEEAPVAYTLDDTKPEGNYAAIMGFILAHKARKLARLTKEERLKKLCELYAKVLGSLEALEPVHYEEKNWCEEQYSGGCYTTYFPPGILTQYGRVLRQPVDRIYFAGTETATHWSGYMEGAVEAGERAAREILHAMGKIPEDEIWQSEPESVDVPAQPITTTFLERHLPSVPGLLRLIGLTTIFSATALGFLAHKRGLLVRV

Structure (SMILES): COCCOc1cc2ncnc(Sc3nc[nH]n3)c2cc1OCCOC
- inhibition at 0.5 µM (MGC-803 [1]): 70%
- IC50 (BGC-823): 15.3 µM
- inhibition in vivo at 40 mg/kg/day (MGC-803 [2]): 81.6%
- Activity (MGC-803 [3]): Active
- Activity (MGC-803 [4]): 2.3%
- Activity (MGC-803 [5]): 31.2%
- IC50 (GES1): > 50 µM
- IC50 (NCI-H1975): 26.6 µM
- Activity (MGC-803 [6]): 45.8%
- Activity (MGC-803 [7]): Active
- Activity (MGC-803 [8]): Active
- Activity (MGC-803 [9]): 10.3%
- IC50 [10]: 0.69 µM
- inhibition (MGC-803 [11]): Dose-Dependent Effect
- solubility [12]: > 100 mg/mL
- inhibition [13]: 97%
- Activity (MGC-803 [14]): 2.2%
- inhibition [15]: 13%
- Activity (MGC-803 [16]): 20.9%
- IC50 [17]: 5.21 µM
- viability at 5 µM (MGC-803 [18]): 68.4%
- inhibition [19]: < 2%
- inhibition at 10 µM (MGC-803 [20]): > 90%
- Ratio IC50 (Homo sapiens): 7.5
- Activity (MGC-803 [21]): 55.1%
- inhibition [22]: Dose-Dependent Effect
- Activity (MGC-803 [23]): 0.4%
- IC50 (PC-3): > 50 µM
- inhibition (MGC-803 [24]): Active
- inhibition at 1.25 h, 5 µM (MAO-B): 18%
